Source: US5620958A, “Bradykinin antagonists” (Coretech, Inc., priority 1994, dated 1997)
Where two headings read alike, the source gives them in different places. Peptide text beside a SMILES is read from it.

Tests used:
[1] = target: T1, BK2 receptor (Rattus norvegicus, UniProt P25023); assay: cell-based
T1 sequence (P25023 1-396): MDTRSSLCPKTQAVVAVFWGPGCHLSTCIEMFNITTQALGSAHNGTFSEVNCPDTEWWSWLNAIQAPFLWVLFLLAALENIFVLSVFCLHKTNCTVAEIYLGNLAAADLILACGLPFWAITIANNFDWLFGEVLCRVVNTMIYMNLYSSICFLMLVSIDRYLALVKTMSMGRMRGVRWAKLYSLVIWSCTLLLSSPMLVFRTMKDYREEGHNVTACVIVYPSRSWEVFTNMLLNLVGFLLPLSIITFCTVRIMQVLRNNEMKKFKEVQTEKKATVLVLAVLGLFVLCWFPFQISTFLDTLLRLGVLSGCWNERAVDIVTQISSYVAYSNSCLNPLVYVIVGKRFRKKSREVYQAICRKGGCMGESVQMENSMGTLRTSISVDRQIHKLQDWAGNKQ

[2] = target: T2, BK2 receptor (Cavia porcellus, UniProt O70526); assay: guinea-pig ileum (GPI) in vitro, antagonism of BK; type: cell-based
T2 construct: tested for activity on guinea pig ileum in vitro on the standard tissue bath/strain gauge system; from tissue; host or cells: guinea pig ileum
T2 sequence (O70526 1-372): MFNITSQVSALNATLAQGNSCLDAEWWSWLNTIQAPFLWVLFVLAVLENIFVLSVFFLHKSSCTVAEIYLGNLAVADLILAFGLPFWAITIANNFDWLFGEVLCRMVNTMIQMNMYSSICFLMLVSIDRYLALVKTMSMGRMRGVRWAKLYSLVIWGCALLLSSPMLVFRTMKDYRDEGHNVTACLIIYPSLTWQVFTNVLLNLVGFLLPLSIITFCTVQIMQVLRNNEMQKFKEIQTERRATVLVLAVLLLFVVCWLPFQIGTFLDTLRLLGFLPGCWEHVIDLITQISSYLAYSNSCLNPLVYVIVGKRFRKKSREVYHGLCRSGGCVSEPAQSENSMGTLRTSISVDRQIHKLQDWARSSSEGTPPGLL
Description: Thus, in vitro studies were performed on standard assay systems, namely, guinea-pig ileum (GPI), rat uterus (RU) and rabbit jugular vein (RJV). […] The potency of each compound was assessed as a pA2 value according to the method of Arunlakshana & Schild, Br. J. Pharmacol. Chemother., 1.4:48-58 (1959). The pA2 can be defined as the negative logarithm of the molar concentration of the antagonist in the presence of which the potency of the agonist is reduced two-fold, i.e., twice the amount of agonist is required to produce a given response in the presence of, than in the absence of, the antagonist. A high potency of antagonism is indicated by a high pA2 value, i.e., a low concentration of antagonist is effective.
The percentage recovery (% Rec) was also determined for compounds with respect to each assay.
The various compounds identified in Table B below were prepared following the procedure of Example 1 with the Cys moiety introduced into the parent CP-0088 at the position indicated followed by reaction between the sulfhydryl group of the Cys residue and BMH to provide dimers as indicated. The Cys-modified monomers and the resultant dimers were tested for activity on guinea pig ileum in vitro on the standard tissue bath/strain gauge system as before.

[3] = target: T3, NK1 receptor (Cavia porcellus, UniProt P30547); assay: guinea pig ileum assay of NK1 receptor activity against substance P; type: cell-based; settings: Table O; read-out: NK1 : GPI pA2 (± s.e.m.) (converted)
T3 construct: a standard guinea pig ileum assay of NK1 receptor activity; from tissue; host or cells: guinea pig ileum
Description: In order to illustrate the potential of blocking two different receptor populations with a single compound a consensus NK1 receptor antagonist (DArg-DPro-Lys-Pro-Gln-Asn-DPhe-Phe-DTrp-Leu-Nle) was synthesized. […] Once the activity of this reference ligand was established, a series of lysine containing monomers formed by the systematic substitution of a lysine residue sequentially through the reference peptide was synthesized.

[4] = Table B, read-out: pA2 GUINEA PIG ILEUM (converted)

T3 sequence (P30547 whole entry): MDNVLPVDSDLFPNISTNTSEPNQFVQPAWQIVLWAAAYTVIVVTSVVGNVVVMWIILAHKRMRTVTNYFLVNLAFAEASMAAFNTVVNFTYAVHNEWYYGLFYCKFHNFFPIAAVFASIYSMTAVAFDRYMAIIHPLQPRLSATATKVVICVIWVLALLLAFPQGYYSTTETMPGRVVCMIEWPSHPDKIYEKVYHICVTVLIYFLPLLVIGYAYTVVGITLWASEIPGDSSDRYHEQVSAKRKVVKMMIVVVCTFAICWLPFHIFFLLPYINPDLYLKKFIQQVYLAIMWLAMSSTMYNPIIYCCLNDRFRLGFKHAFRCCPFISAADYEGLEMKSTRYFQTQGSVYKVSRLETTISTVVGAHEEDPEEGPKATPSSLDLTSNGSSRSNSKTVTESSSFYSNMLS

SMILES	Kb [1] [nM]	Kb ([2]; Table E, read-out: GPI pA2 (converted)) [nM]	Kb [2, 4] [nM]	Kb [3] [nM]
CC(C)C[C@H](NC(=O)[C@@H](Cc1ccccc1)NC(=O)[C@H](CSSC[C@H](NC(=O)[C@H](Cc1ccccc1)NC(=O)CNC(=O)[C@@H]1C[C@@H](O)CN1C(=O)[C@@H]1CCCN1C(=O)[C@H](CCCNC(=N)N)NC(=O)[C@H](N)CCCNC(=N)N)C(=O)N[C@H](Cc1ccccc1)C(=O)N[C@@H](CC(C)C)C(=O)N[C@@H](CCCNC(=N)N)C(=O)O)NC(=O)[C@H](Cc1ccccc1)NC(=O)CNC(=O)[C@@H]1C[C@@H](O)CN1C(=O)[C@@H]1CCCN1C(=O)[C@H](CCCNC(=N)N)NC(=O)[C@H](N)CCCNC(=N)N)C(=O)N[C@@H](CCCNC(=N)N)C(=O)O [CP-0138] (HELM PEPTIDE1{[dR].R.P.[Hyp].G.F.C.[dF].L.R}|PEPTIDE2{[dR].R.P.[Hyp].G.F.C.[dF].L.R}$PEPTIDE1,PEPTIDE2,7:R3-7:R3$$$V2.0)	10	63.1	–	–
CC(C)C[C@H](NC(=O)[C@@H](Cc1ccccc1)NC(=O)[C@H](CO)NC(=O)[C@H](Cc1ccccc1)NC(=O)CNC(=O)[C@@H]1C[C@@H](O)CN1C(=O)[C@@H]1CCCN1C(=O)[C@H](CCCNC(=N)N)NC(=O)[C@@H](N)CS)C(=O)N[C@@H](CCCNC(=N)N)C(=O)O [CP-0140] (HELM PEPTIDE1{C.R.P.[Hyp].G.F.S.[dF].L.R}$$$$V2.0)	79.4	–	200	–
CC(C)C[C@H](NC(=O)[C@@H](Cc1ccccc1)NC(=O)[C@H](CO)NC(=O)[C@H](Cc1ccccc1)NC(=O)CNC(=O)[C@@H]1C[C@@H](O)CN1C(=O)[C@H](CSC1CC(=O)N(CCCCCCN2C(=O)CC(SC[C@H](NC(=O)[C@H](CCCNC(=N)N)NC(=O)[C@H](N)CCCNC(=N)N)C(=O)N3C[C@H](O)C[C@H]3C(=O)NCC(=O)N[C@@H](Cc3ccccc3)C(=O)N[C@@H](CO)C(=O)N[C@H](Cc3ccccc3)C(=O)N[C@@H](CC(C)C)C(=O)N[C@@H](CCCNC(=N)N)C(=O)O)C2=O)C1=O)NC(=O)[C@H](CCCNC(=N)N)NC(=O)[C@H](N)CCCNC(=N)N)C(=O)N[C@@H](CCCNC(=N)N)C(=O)O (stereo partly drawn) [CP-0154] (HELM PEPTIDE1{[dR].R.C.[Hyp].G.F.S.[dF].L.R}|PEPTIDE2{[dR].R.C.[Hyp].G.F.S.[dF].L.R}|CHEM1{[O=C1CC([*:1])C(=O)N1CCCCCCN1C(=O)CC([*:2])C1=O]}$PEPTIDE1,CHEM1,3:R3-1:R1|PEPTIDE2,CHEM1,3:R3-1:R2$$$V2.0)	–	–	126	–
CCCC[C@H](NC(=O)[C@H](CC(C)C)NC(=O)[C@@H](Cc1c[nH]c2ccccc12)NC(=O)[C@H](Cc1ccccc1)NC(=O)[C@@H](Cc1ccccc1)NC(=O)[C@H](CC(N)=O)NC(=O)[C@H](CCC(N)=O)NC(=O)[C@@H]1CCCN1C(=O)[C@H](CCCCN)NC(=O)[C@H]1CCCN1C(=O)[C@@H](N)CCCCNC(=O)CCCCCN1C(=O)CC(SC[C@H](NC(=O)[C@H](Cc2ccccc2)NC(=O)CNC(=O)[C@@H]2C[C@@H](O)CN2C(=O)[C@@H]2CCCN2C(=O)[C@H](CCCNC(=N)N)NC(=O)[C@H](N)CCCNC(=N)N)C(=O)N[C@H](Cc2ccccc2)C(=O)N[C@@H](CC(C)C)C(=O)N[C@@H](CCCNC(=N)N)C(=O)O)C1=O)C(N)=O (stereo partly drawn) [CP-0390] (HELM PEPTIDE1{K.[dP].K.P.Q.N.[dF].F.[dW].L.[Nle].[am]}|PEPTIDE2{[dR].R.P.[Hyp].G.F.C.[dF].L.R}|CHEM1{[O=C1CC([*:2])C(=O)N1CCCCCC(=O)[*:1]]}$PEPTIDE1,CHEM1,1:R3-1:R1|PEPTIDE2,CHEM1,7:R3-1:R2$$$V2.0)	63.1	–	–	15800
CCCC[C@H](NC(=O)[C@H](CC(C)C)NC(=O)[C@@H](Cc1c[nH]c2ccccc12)NC(=O)[C@H](Cc1ccccc1)NC(=O)[C@@H](Cc1ccccc1)NC(=O)[C@H](CC(N)=O)NC(=O)[C@H](CCC(N)=O)NC(=O)[C@@H]1CCCN1C(=O)[C@H](CCCCN)NC(=O)[C@H](CCCCNC(=O)CCCCCN1C(=O)CC(SC[C@H](NC(=O)[C@H](Cc2ccccc2)NC(=O)CNC(=O)[C@@H]2C[C@@H](O)CN2C(=O)[C@@H]2CCCN2C(=O)[C@H](CCCNC(=N)N)NC(=O)[C@H](N)CCCNC(=N)N)C(=O)N[C@H](Cc2ccccc2)C(=O)N[C@@H](CC(C)C)C(=O)N[C@@H](CCCNC(=N)N)C(=O)O)C1=O)NC(=O)[C@H](N)CCCNC(=N)N)C(N)=O (stereo partly drawn) [CP-0391] (HELM PEPTIDE1{[dR].K.K.P.Q.N.[dF].F.[dW].L.[Nle].[am]}|PEPTIDE2{[dR].R.P.[Hyp].G.F.C.[dF].L.R}|CHEM1{[O=C1CC([*:2])C(=O)N1CCCCCC(=O)[*:1]]}$PEPTIDE1,CHEM1,2:R3-1:R1|PEPTIDE2,CHEM1,7:R3-1:R2$$$V2.0)	79.4	–	–	10000
CCCC[C@H](NC(=O)[C@H](CC(C)C)NC(=O)[C@@H](Cc1c[nH]c2ccccc12)NC(=O)[C@H](Cc1ccccc1)NC(=O)[C@@H](Cc1ccccc1)NC(=O)[C@H](CC(N)=O)NC(=O)[C@H](CCC(N)=O)NC(=O)[C@@H]1CCCN1C(=O)[C@H](CCCCNC(=O)CCCCCN1C(=O)CC(SC[C@H](NC(=O)[C@H](Cc2ccccc2)NC(=O)CNC(=O)[C@@H]2C[C@@H](O)CN2C(=O)[C@@H]2CCCN2C(=O)[C@H](CCCNC(=N)N)NC(=O)[C@H](N)CCCNC(=N)N)C(=O)N[C@H](Cc2ccccc2)C(=O)N[C@@H](CC(C)C)C(=O)N[C@@H](CCCNC(=N)N)C(=O)O)C1=O)NC(=O)[C@H]1CCCN1C(=O)[C@H](N)CCCNC(=N)N)C(N)=O (stereo partly drawn) [CP-0392] (HELM PEPTIDE1{[dR].[dP].K.P.Q.N.[dF].F.[dW].L.[Nle].[am]}|PEPTIDE2{[dR].R.P.[Hyp].G.F.C.[dF].L.R}|CHEM1{[O=C1CC([*:2])C(=O)N1CCCCCC(=O)[*:1]]}$PEPTIDE1,CHEM1,3:R3-1:R1|PEPTIDE2,CHEM1,7:R3-1:R2$$$V2.0)	100	–	–	5010
CCCC[C@H](NC(=O)[C@H](CC(C)C)NC(=O)[C@@H](Cc1c[nH]c2ccccc12)NC(=O)[C@H](Cc1ccccc1)NC(=O)[C@@H](Cc1ccccc1)NC(=O)[C@H](CC(N)=O)NC(=O)[C@H](CCC(N)=O)NC(=O)[C@H](CCCCNC(=O)CCCCCN1C(=O)CC(SC[C@H](NC(=O)[C@H](Cc2ccccc2)NC(=O)CNC(=O)[C@@H]2C[C@@H](O)CN2C(=O)[C@@H]2CCCN2C(=O)[C@H](CCCNC(=N)N)NC(=O)[C@H](N)CCCNC(=N)N)C(=O)N[C@H](Cc2ccccc2)C(=O)N[C@@H](CC(C)C)C(=O)N[C@@H](CCCNC(=N)N)C(=O)O)C1=O)NC(=O)[C@H](CCCCN)NC(=O)[C@H]1CCCN1C(=O)[C@H](N)CCCNC(=N)N)C(N)=O (stereo partly drawn) [CP-0393] (HELM PEPTIDE1{[dR].[dP].K.K.Q.N.[dF].F.[dW].L.[Nle].[am]}|PEPTIDE2{[dR].R.P.[Hyp].G.F.C.[dF].L.R}|CHEM1{[O=C1CC([*:2])C(=O)N1CCCCCC(=O)[*:1]]}$PEPTIDE1,CHEM1,4:R3-1:R1|PEPTIDE2,CHEM1,7:R3-1:R2$$$V2.0)	39.8	–	–	3160
CCCC[C@H](NC(=O)[C@H](CC(C)C)NC(=O)[C@@H](Cc1c[nH]c2ccccc12)NC(=O)[C@H](Cc1ccccc1)NC(=O)[C@@H](Cc1ccccc1)NC(=O)[C@H](CC(N)=O)NC(=O)[C@H](CCCCNC(=O)CCCCCN1C(=O)CC(SC[C@H](NC(=O)[C@H](Cc2ccccc2)NC(=O)CNC(=O)[C@@H]2C[C@@H](O)CN2C(=O)[C@@H]2CCCN2C(=O)[C@H](CCCNC(=N)N)NC(=O)[C@H](N)CCCNC(=N)N)C(=O)N[C@H](Cc2ccccc2)C(=O)N[C@@H](CC(C)C)C(=O)N[C@@H](CCCNC(=N)N)C(=O)O)C1=O)NC(=O)[C@@H]1CCCN1C(=O)[C@H](CCCCN)NC(=O)[C@H]1CCCN1C(=O)[C@H](N)CCCNC(=N)N)C(N)=O (stereo partly drawn) [CP-0394] (HELM PEPTIDE1{[dR].[dP].K.P.K.N.[dF].F.[dW].L.[Nle].[am]}|PEPTIDE2{[dR].R.P.[Hyp].G.F.C.[dF].L.R}|CHEM1{[O=C1CC([*:2])C(=O)N1CCCCCC(=O)[*:1]]}$PEPTIDE1,CHEM1,5:R3-1:R1|PEPTIDE2,CHEM1,7:R3-1:R2$$$V2.0)	12.6	–	–	1580
